Results taken from patent publication US10857105B2, “Compounds and compositions for intracellular delivery of therapeutic agents” (ModernaTX, Inc., priority 2017, dated 2020).

Columns and labels:
hEPO mRNA [1] = assay: hEPO expression after intramuscular administration to mice; type: in vivo; details: Table 3G, intramuscular, hEPO, 6 hr. timepoint, relative to MC3
Procedure: The numbers 1-11 in this figure correspond to MC3, Compounds 18, 25, 30, 108-112, 60, and 122 respectively.
The expression of hEPO and cytokine induction in mice intravenously administered a nanoparticle composition at a dose of 0.5 mpk were measured at 3, 6, and 24 hours. […] The expression of hEPO in mice intramuscularly administered a nanoparticle composition from Table 1B at a dose of 0.01 mpk were measured at 3, 6, and 24 hours. […] (see

modified luciferase = assay: Luciferase expression in liver, lung, spleen and femur 6 hours after intravenous administration to mice; type: in vivo; details: 6 hours after intravenous 0.5 mpk, mice
How it was run: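 Nanoparticle formulations of the modified luciferase were given intravenously to mice (n=3) at 0.5 mpk. Bioluminescence was measured after 6 hours as total light flux. Standard MC3 formulation and PBS run as controls.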

[2] = Encapsulation efficiency of RNA in nanoparticle compositions (RIBOGREEN assay); type: physicochemical; details: Table 1B; formulated with hEPO mRNA
How it was run: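 Lipid nanoparticles (ionisable lipid:DSPC:cholesterol:PEG-DMG 50:10:38.5:1.5 mol %) carrying N1-methylpseudouridine luciferase or hEPO mRNA diluted to about 5 μg/mL in TE, pH 7.5, with or without 2% Triton X-100, 15 min at 37° C. RiboGreen fluorescence (ex ~480, em ~520 nm) blank-subtracted; free RNA = intact/disrupted signal.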

luciferase (Luc) mRNA [3] = assay: Luciferase expression after intramuscular administration to mice; type: in vivo; details: Luc mRNA, intramuscular, 0.01 mpk, 6 hours
How it was run: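 CD-1 mice received lipid nanoparticle formulations of modified luciferase mRNA intramuscularly at 0.01 mpk. Bioluminescence total flux was measured, including at 6 h, and AUC was expressed relative to MC3 formulations. Immunogenicity was assessed in parallel.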

[4] = Particle size and polydispersity index of nanoparticle compositions (Zetasizer Nano ZS); type: physicochemical
How it was run: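 Size and PDI measured by Zetasizer Nano ZS in 1×PBS (zeta potential in 15 mM PBS). Lipid nanoparticles contained test ionizable lipid:DSPC:cholesterol:PEG-DMG at 50:10:38.5:1.5 mol % with N1-methyl-pseudouridine mRNA encoding luciferase or hEPO.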

luciferase (Luc) mRNA [5] = assay: Luciferase expression (whole body bioluminescence) after intravenous administration to mice; type: in vivo; details: intravenous, luciferase
How it was run: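 Mice (n=6) received lipid nanoparticle formulations carrying luciferase mRNA intravenously at 0.5 mg/kg. Whole-body bioluminescence was measured at 3, 6 and 24 h. Total flux was taken as area under the curve and expressed relative to a standard MC3 formulation.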

human hepatocytes = assay: Metabolite profiling of Compound 18 incubated with human hepatocytes; type: in vitro ADME; design: key: +: Detected; ND: Not detected; details: Compound 18 (10 μM), human hepatocytes
Procedure: (§1) In vitro metabolite identification studies using compound 18 were also performed. […] The disappearance of parent compound 18 and the primary metabolite, compound 166, from mouse liver tissue was measured after dosing 0.25 mg/kg mRNA on days 1, 8, and 15.
The results of metabolic profiling and characterization for compound 18 incubated with human hepatocytes or human plasma are summarized in Tables 41 and 42, respectively.

mouse liver tissue = assay: Disappearance of parent lipid and primary metabolite from mouse liver after 0.25 mg/kg mRNA on days 1, 8 and 15; type: in vivo
Procedure: as §1

[6] = Metabolite identification of Compound 18 incubated with human plasma; type: in vitro ADME; design: key to Detection at 0 min / Detection at 30 min / Detection at 60 min / Detection at 90 min: +: Detected; ND: Not detected; details: Compound 18 (10 μM), human plasma
Procedure: Metabolite Identification: Compound 18 (10 μM) was incubated with human plasma (29.0 mg protein/incubation) in incubation mixtures (200 μL final incubation volume) that consisted of 50/50 v/v neat plasma (undiluted)/substrate solution in 50 mM phosphate buffer, pH 7.4). The plasma was obtained from male and female donors and contained K2EDTA anticoagulant. Reactions were started by addition of the substrate solution to human plasma and were stopped at four designated time points (0, 30, 60 and 90 min) by the addition of 600 μL of stop reagent (acetonitrile). Stopped incubation samples were centrifuged (e.g., 10,000×g for 10 min at 10° C.) and the supernatant fractions were analyzed by LC-MS/MS to characterize the metabolites formed from compound 18. Additional incubations were performed with the positive control procaine […] to establish competency of the test system. Samples were analyzed by LC-MS/MS.
as §1

hEPO mRNA [7] = assay: Pretreatment study (methotrexate or dexamethasone) with MC3 formulation in Cynomolgus monkeys; type: in vivo; details: MC3 formulation with hEPO mRNA, once weekly for four weeks
From the text: In order to combat negative effects, nanoparticle compositions are co-administered with one or more substances (e.g., co-medications or additional therapeutic and/or prophylactics) to subjects. Potentially useful additional therapeutic and/or prophylactics include steroids (e.g., corticosteroids), anti-histamines, H1 receptor blockers, H2 receptor blockers, anti-inflammatory compounds, statins, BTK inhibitors, S1P1 agonists, glucocorticoid receptor modulators (GRMs), and estradiols. Non-human primates are pretreated with one or more additional therapeutic agents selected from dexamethasone and acetaminophen. The additional therapeutic agent is administered either 24 hours, 1 hour, or both 24 hours and 1 hour before administration of a nanoparticle composition. Cytokine profiles, inflammation, and other parameters are measured and compared to evaluate the effectiveness of pretreatment
The effects of pretreatment to non-human primates were evaluated using a standard MC3 formulation including an mRNA encoding hEPO. Male monkeys were administered the nanoparticle composition once weekly for four weeks at a dose rate of 5 ml/kg/h and were pretreated with either methotrexate or dexamethasone.
As shown, in the absence of any pretreatment, maximal expression levels decreased nearly 70% over the course of the study.

## CCCCCCCCCOC(=O)CCCCCCCN(CCCCCCCC(=O)OC(CCCCCCCC)CCCCCCCC)CCCNC(=O)NC [Compound 112, Heptadecan-9-yl 8-((3-(3-methylureido)propyl)(8-(nonyloxy)-8-oxooctyl)amino)octanoate]
hEPO mRNA [1]
  Novel lipid/MC3 ratio, i.m. hEPO: 1.6
Modified luciferase; liver
  Total Flux, Liver: 1.48E+08
Modified luciferase; lung
  Total Flux, Lung: 1.83E+06
Modified luciferase; spleen
  Total Flux, Spleen: 2.75E+07
[2]
  EE: 96.40%
Luciferase (Luc) mRNA [3]
  Total flux 6 hours after intramuscular administration, 0.01 mpk Dose: 9.47E+07 p/s
[4]; Table 1A, lipid:DSPC:cholesterol:PEG-DMG 50:10:38.5:1.5 mol %
  Size: 83.7 nm
[4]; Table 1B, formulated with hEPO mRNA
  Size: 60.6 nm
[4]; Table 1C, compositions for subcutaneous administration
  Size: 83.7 nm
Luciferase (Luc) mRNA [5]; Table 3G, 6 hr. timepoint, relative to MC3
  Novel lipid/MC3 ratio, i.v.: 0.08
Luciferase (Luc) mRNA [5]; 6 hr. time point, relative to MC3 formulation
  Novel lipid/MC3 expression ratio, i.v.: 0.08

## CCCCCCCCC(CCCCCCCC)OC(=O)CCCCCCCN(CCO)CCCCCCCC(=O)O [Compound 166, 8-((8-(Heptadecan-9-yloxy)-8-oxooctyl)(2-hydroxyethyl)amino)octanoic acid]
Human hepatocytes; 60 min
  Detection at 60 min: +
Human hepatocytes; 120 min
  Detection at 120 min: +
Human hepatocytes; 240 min
  Detection at 240 min: +
Mouse liver tissue
  clearance from mouse liver tissue: rapid clearance
[6]; 30 min
  Detection at 30 min: +
[6]; 60 min
  Detection at 60 min: +
[6]; 90 min
  Detection at 90 min: +

## CN(Cc1cnc2nc(N)nc(N)c2n1)c1ccc(C(=O)N[C@@H](CCC(=O)O)C(=O)O)cc1 [Methotrexate, methotrexate]
hEPO mRNA [7]
  Effect of pretreatment on protein expression: did not confer any particular beneficial effect
